From US9981938B2, “Quaternary ammonium alkyl esters as stable prodrugs” (ALLERGAN, INC., priority 2014, dated 2018)
Each block holds one molecule with its values, some of them ahead of it.

Assay: Stability of compounds in aqueous solution
Type: physicochemical
Settings: compound dissolved in aqueous solution, in %; for stability, 25° C./ 7 days: maintained at 25° C. for 7 days; for stability, 25° C./ 14 days: maintained at 25° C. for 14 days; for stability, 40° C./ 7 days: maintained at 40° C. for 7 days
Procedure: In some embodiments the stability of the compound is such that, when stored in an aqueous solution at 25° C. for 7 days or 14 days, at least about 70%, at least about 80%, at least about 90%, at least about 95%, at least about 97%, at least about 99% of the original compound, and up to about 100% of the original compound remains in the solution. In some embodiments, the stability of the compound is such that at least about 70%, at least about 80%, at least about 90%, at least about 95%, at least about 97%, at least about 99% of the original compound, and up to about 100% of original compound remains after 7 days of storage in an aqueous solution at 40° C.
The following Table 1 depicts various embodiments indicating the stability of compounds depicted by their respective structures in the table. The compounds were dissolved in an aqueous solution, and maintained at the indicated temperatures, for 7 to 14 days, as indicated.

Structure (SMILES): O=C(Oc1ccc(CN2CCOCC2)cc1)c1ccc(CCC[C@@H]2[C@@H](CCc3cc(Cl)cc(Cl)c3)[C@H](O)C[C@H]2Cl)s1 [Compound 3, 5-(3-{(1R, 2R, 3R, 5R)-5-Chloro-2-[2-(3,5-dichlorophenyl)ethyl]-3-hydroxycyclopentyl}-propyl)thiophene-2-carboxylic acid 4-morpholin-4-ylmethyl phenyl ester]
- stability, 25° C./ 7 days: 97.3
- stability, 25° C./ 14 days: 97.3
- stability, 40° C./ 7 days: 91.7

Structure (SMILES): CN(C)c1ccc(OC(=O)c2ccc(CCC[C@@H]3[C@@H](CCc4cc(Cl)cc(Cl)c4)[C@H](O)C[C@H]3Cl)s2)cc1 [Compound 4, 5-(3-{(1R, 2R, 3R, 5R)-5-Chloro-2-[2-(3,5-dichlorophenyl)ethyl]-3-hydroxycyclopentyl}-propyl)thiophene-2-carboxylic acid 4-dimethylaminophenyl ester]
- stability, 25° C./ 7 days: 98.7
- stability, 25° C./ 14 days: 100.2
- stability, 40° C./ 7 days: 96.0

Structure (SMILES): CC(CCN1CCOCC1)OC(=O)c1ccc(CCC[C@@H]2[C@@H](CCc3cc(Cl)cc(Cl)c3)[C@H](O)C[C@H]2Cl)s1 (stereo partly drawn) [Compound 5, 5-(3-{(1R, 2R, 3R, 5R)-5-Chloro-2-[2-(3,5-dichlorophenyl)ethyl]-3-hydroxycyclopentyl}propyl)thiophene-2-carboxylic acid, 1-methyl-3-morpholin-4-yl propyl ester]
- stability, 25° C./ 7 days: 98.5
- stability, 25° C./ 14 days: 95.4
- stability, 40° C./ 7 days: 89.3

Structure (SMILES): O=C(OCCCN1CCOCC1)c1ccc(CCC[C@@H]2[C@@H](CCc3cc(Cl)cc(Cl)c3)[C@H](O)C[C@H]2Cl)s1 [Compound 6, 5-(3-{(1R, 2R, 3R, 5R)-5-Chloro-2-[2-(3,5-dichlorophenyl)ethyl]-3-hydroxycyclopentyl}propyl)thiophene-2-carboxylic acid, 3-morpholin-4-yl propyl ester]
- stability, 25° C./ 7 days: 103.0
- stability, 25° C./ 14 days: 102.9
- stability, 40° C./ 7 days: 98.0

Structure (SMILES): CC(CN(C)C)OC(=O)c1ccc(CCC[C@@H]2[C@@H](CCc3cc(Cl)cc(Cl)c3)[C@H](O)C[C@H]2Cl)s1 (stereo partly drawn) [Compound 7, 5-(3-{(1R, 2R, 3R, 5R)-5-Chloro-2-[2-(3,5-dichlorophenyl)ethyl]-3-hydroxycyclopentyl}propyl)thiophene-2-carboxylic acid, 2-dimethylamino-1-methyl ethyl ester]
- stability, 25° C./ 7 days: 94.3
- stability, 25° C./ 14 days: 78.5
- stability, 40° C./ 7 days: 70.3

Next, values leading:

- stability, 25° C./ 7 days: 96.4
- stability, 25° C./ 14 days: 95.2
- stability, 40° C./ 7 days: 78.0
Structure (SMILES): CN(C)Cc1ccc(OC(=O)c2ccc(CCC[C@@H]3[C@@H](CCc4cc(Cl)cc(Cl)c4)[C@H](O)C[C@H]3Cl)s2)cc1 [Compound 2, 5-(3-{(1R, 2R, 3R, 5R)-5-Chloro-2-[2-(3,5-dichlorophenyl)ethyl]-3-hydroxycyclopentyl}-propyl)thiophene-2-carboxylic acid 4-dimethylaminomethyl phenyl ester]

- stability, 25° C./ 7 days: 95.8
- stability, 25° C./ 14 days: 84.6
- stability, 40° C./ 7 days: 79.1
Structure (SMILES): CCN(CC)CCOC(=O)c1ccc(CCC[C@@H]2[C@@H](CCc3cc(Cl)cc(Cl)c3)[C@H](O)C[C@H]2Cl)s1 [Compound 8, 5-(3-{(1R, 2R, 3R, 5R)-5-Chloro-2-[2-(3,5-dichlorophenyl)ethyl]-3-hydroxycyclopentyl}-propyl)thiophene-2-carboxylic acid, 2-diethylaminoethyl ester]

- stability, 25° C./ 7 days: 100.5
- stability, 25° C./ 14 days: 101.1
- stability, 40° C./ 7 days: 101.8
Structure (SMILES): CC[N+](C)(CC)CCCOC(=O)c1ccc(CCC[C@@H]2[C@@H](CCc3cc(Cl)cc(Cl)c3)[C@H](O)C[C@H]2Cl)s1 [Compound 9, {3-[5-(3-{(1R, 2R, 3R, 5R)-5-Chloro-2-[2-(3,5-dichlorophenyl)ethyl]-3-hydroxycyclopentyl}-propyl)thiophene-2-carbonyloxy]propyl}diethyl methyl ammonium iodide]
